One assay has as its target T1, NEP (Rattus norvegicus, UniProt P07861).
T1 construct: NEP enzyme activity was measured in tissue homogenates; from tissue; host or cells: Wistar rat kidney, lung, duodenum, jejunum homogenates
T1 sequence (P07861 1-750): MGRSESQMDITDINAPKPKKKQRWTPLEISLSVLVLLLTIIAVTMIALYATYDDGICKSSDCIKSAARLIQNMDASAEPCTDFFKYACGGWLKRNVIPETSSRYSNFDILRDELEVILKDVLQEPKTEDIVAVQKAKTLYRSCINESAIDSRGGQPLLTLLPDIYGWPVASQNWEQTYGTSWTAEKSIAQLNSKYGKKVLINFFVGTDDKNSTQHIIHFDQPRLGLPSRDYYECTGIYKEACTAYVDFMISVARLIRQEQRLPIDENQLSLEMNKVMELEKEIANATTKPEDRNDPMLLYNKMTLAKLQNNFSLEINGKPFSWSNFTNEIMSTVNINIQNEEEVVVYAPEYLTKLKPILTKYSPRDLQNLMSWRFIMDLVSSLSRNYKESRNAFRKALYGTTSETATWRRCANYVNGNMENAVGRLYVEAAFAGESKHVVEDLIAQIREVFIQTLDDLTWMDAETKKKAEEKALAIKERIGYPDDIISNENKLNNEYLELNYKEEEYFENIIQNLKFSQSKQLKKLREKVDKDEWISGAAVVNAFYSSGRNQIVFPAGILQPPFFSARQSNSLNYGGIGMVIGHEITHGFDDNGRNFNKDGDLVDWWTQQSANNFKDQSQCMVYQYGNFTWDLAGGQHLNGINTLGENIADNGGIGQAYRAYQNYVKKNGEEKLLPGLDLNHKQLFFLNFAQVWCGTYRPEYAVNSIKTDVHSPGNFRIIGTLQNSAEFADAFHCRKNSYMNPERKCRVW
As to the kind of experiment: NEP enzyme activity in tissues after oral treatment. The assay is classed as in vivo. To be noted: 5 hours postdose, single oral dose, rats. The protocol:
Four or five 2-mm Zirconia beads (Biospec, Bartlesville, OK) were added to fresh weighed tissue specimens (50–250 mg). Assay buffer consisting of 50 mM Tris-HCl (pH 7.4), 200 mM NaCl, and 0.05% TritonX-100 was added (4 μl/mg), and the sample was homogenized for 1 minute using a bead beater (Biospec). Stored frozen homogenates were thawed at room temperature and centrifuged 10 minutes at 18,000g, and the protein concentration was determined for each supernatant. […] NEP substrate 2Abz-dArg-Gly-Leu-C2-Dnp (American Peptide, Sunnyvale, CA) was prepared at 1 mM in 20% acetonitrile/water and diluted to 100 μM in assay buffer, and 10 μl was dispensed to homogenate-containing wells. […] Kinetic data were plotted to determine the rate of product formation by linear regression with interpolation against a standard curve, and the rate was normalized to protein concentration.

Another assay addresses T2, ACE (Homo sapiens, UniProt P12821).
T2 construct: purchased R&D Systems (Minneapolis, MN)
As to the kind of experiment: Purified peptidase assay, ACE. Format: biochemical. To be noted: recombinant purified human enzyme; for prodrugs the active form was tested. The protocol: (§1) Purified recombinant human enzymes were purchased from R&D Systems (Minneapolis, MN). […] Each substrate was diluted to 100 μM in the assay buffer recommended for each enzyme by the supplier. […] To these, 5 μl of diluted enzyme was added, followed by 10 μl of the quenched peptide substrate. The plates were incubated at 37°C until at least 10% substrate turnover or 5 μM product had formed. Fluorescence was measured using a Tecan Safire II (Excitation 320 nm/Emission 420 nm). Each plate included a standard curve of reaction product and positive (no enzyme) and negative (dimethyl sulfoxide vehicle) controls. Dose-response data were plotted and inhibition values (IC50) determined by linear regression analysis using GraphPad Prism (GraphPad Software, La Jolla, CA).

The target in another assay is T3, aminopeptidase N (Homo sapiens, UniProt P15144).
T3 construct: purchased R&D Systems (Minneapolis, MN)
Briefly: Purified peptidase assay, APN. Format: biochemical. Conditions: recombinant purified human enzyme; for prodrugs the active form was tested. The protocol:
as §1

In the next assay the target is T4, ECE-2 (Homo sapiens, UniProt P0DPD6).
T4 construct: purchased R&D Systems (Minneapolis, MN)
T4 sequence (P0DPD6 1-811): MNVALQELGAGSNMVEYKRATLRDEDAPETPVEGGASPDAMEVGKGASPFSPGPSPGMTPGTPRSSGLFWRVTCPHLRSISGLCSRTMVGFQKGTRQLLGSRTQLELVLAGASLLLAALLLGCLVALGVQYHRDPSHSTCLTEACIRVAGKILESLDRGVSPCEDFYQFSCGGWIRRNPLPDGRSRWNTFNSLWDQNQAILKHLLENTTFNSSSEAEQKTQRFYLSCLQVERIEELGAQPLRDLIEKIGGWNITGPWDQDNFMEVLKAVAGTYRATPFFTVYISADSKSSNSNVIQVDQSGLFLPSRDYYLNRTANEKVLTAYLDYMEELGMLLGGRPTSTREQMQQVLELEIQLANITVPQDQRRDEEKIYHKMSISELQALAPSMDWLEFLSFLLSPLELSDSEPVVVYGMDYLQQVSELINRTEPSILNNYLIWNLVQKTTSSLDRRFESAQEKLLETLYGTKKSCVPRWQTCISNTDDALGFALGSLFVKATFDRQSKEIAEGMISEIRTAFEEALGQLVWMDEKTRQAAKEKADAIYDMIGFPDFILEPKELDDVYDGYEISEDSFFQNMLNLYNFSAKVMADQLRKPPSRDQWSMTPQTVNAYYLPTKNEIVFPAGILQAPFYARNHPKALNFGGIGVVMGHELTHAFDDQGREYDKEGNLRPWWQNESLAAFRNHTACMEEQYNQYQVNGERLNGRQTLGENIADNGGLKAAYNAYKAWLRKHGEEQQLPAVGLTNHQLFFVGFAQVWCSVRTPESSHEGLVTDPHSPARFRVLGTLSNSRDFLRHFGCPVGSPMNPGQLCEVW
Briefly: Purified peptidase assay, ECE-2. The assay is classed as biochemical. To be noted: recombinant purified human enzyme; for prodrugs the active form was tested. The protocol: as §1

T2 sequence (P12821 30-1306): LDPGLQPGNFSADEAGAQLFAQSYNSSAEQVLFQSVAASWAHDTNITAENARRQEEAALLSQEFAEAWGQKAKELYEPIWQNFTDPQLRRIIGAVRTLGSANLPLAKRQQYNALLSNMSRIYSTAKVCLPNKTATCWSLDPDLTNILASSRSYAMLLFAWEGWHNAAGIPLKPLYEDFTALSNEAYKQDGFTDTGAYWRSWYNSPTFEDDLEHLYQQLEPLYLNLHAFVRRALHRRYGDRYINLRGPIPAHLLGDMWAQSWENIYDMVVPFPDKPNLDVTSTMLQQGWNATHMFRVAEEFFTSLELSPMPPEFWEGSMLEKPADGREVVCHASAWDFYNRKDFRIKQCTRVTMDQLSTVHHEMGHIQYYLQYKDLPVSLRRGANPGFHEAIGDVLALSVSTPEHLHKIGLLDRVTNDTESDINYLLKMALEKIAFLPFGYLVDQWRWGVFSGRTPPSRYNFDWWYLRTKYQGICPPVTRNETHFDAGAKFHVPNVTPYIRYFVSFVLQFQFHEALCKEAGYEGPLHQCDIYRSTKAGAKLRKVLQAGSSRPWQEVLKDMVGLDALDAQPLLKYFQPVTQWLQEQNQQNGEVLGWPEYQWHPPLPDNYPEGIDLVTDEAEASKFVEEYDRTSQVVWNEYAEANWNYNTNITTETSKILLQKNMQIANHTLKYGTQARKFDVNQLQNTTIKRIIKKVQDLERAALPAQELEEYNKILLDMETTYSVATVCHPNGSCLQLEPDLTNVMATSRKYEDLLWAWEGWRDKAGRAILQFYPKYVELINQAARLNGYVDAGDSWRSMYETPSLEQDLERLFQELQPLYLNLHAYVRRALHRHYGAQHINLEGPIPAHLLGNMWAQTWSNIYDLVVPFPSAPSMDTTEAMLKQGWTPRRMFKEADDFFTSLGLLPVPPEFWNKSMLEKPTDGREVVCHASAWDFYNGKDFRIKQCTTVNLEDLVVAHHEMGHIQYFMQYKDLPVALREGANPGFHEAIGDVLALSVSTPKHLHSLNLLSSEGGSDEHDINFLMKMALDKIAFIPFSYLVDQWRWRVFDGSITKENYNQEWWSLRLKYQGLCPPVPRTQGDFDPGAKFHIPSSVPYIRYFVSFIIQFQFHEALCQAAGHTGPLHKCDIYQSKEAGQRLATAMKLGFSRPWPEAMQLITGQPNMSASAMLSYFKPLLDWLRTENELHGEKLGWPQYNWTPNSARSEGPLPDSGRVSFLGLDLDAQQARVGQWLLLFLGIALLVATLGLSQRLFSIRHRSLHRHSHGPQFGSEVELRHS
T3 sequence (P15144 whole entry): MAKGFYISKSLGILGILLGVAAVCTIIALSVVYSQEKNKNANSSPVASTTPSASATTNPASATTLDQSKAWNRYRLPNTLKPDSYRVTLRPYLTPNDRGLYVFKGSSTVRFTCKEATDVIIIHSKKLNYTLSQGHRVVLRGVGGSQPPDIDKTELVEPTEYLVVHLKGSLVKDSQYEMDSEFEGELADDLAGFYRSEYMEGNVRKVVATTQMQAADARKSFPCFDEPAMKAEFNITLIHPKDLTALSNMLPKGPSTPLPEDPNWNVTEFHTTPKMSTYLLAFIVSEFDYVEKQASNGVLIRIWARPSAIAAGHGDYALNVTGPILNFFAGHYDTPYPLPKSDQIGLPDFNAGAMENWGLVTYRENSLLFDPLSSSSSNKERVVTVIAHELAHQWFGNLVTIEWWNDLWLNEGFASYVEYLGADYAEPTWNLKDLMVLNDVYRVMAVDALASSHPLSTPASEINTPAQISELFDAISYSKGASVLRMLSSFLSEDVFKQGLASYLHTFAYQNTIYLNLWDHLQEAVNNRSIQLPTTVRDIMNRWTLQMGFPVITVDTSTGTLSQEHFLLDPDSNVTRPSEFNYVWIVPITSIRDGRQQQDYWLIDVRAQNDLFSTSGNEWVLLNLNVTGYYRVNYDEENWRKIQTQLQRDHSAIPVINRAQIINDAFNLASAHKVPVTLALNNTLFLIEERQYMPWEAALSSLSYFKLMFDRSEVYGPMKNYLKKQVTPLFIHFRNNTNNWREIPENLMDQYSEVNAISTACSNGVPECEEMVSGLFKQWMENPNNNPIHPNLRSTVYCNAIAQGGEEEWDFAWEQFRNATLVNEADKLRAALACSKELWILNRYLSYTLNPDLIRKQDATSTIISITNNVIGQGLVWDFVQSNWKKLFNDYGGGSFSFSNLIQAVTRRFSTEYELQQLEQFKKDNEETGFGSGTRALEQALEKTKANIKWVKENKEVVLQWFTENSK

As a reminder, the IC50 is the concentration that gives 50% inhibition. Regarding `Cc1nc2ccc(CCCNC(=O)C3(C[C@@H](C)C(=O)O)CCCC3)cc2s1` [UK-505,749, (R)-2-methyl-3-(1-((3-(2-methylbenzo[d]thiazol-6-yl)propyl)carbamoyl)cyclopentyl)propanoic acid], the results for the “Inhibition of NEP in the intestinal segments” value at NEP and on NEP (listed as UK-505,797) were > 92% and ≥ 97%, respectively. The concentration for half-maximal inhibition (IC50) at ACE was > 100 µM; at aminopeptidase N, > 100 µM; at ECE-2, 15 µM.
